Assay results reported in ChEMBL document CHEMBL6120940, “Discovery of N-Aryl-N'-[4-(aryloxy)cyclohexyl]squaramide-Based Inhibitors of LXR/SREBP-1c Signaling Pathway Ameliorating Steatotic Liver Disease: Navigating the Role of SIRT6 Activation” (J Med Chem, 2024).

How the values were obtained:
[1] = Downregulation of SREBP-1c mRNA expression in human HepG2 cells at 10 uM pretreated with compound for 30 mins followed by T0901317 addition and measured after 12 hrs by RT-qPCR analysis relative to control; assay type: functional; settings: time 12.5 hrs
[2] = molecular target: T1, Sterol regulatory element-binding protein 1 (Homo sapiens) (UniProt P36956); assay: Inhibition of SREBP-1c transcriptional activity in human HepG2 cells expressing LXRalpha/RXRalpha assessed as reduction in SRE-luciferase level at 10 uM pretreated with compound for 30 mins followed by T0901317 addition and measured after 12 hrs by Dual-Glo luciferase assay relative to control; assay type: cell-based; settings: time 12.5 hrs
T1 sequence (whole entry): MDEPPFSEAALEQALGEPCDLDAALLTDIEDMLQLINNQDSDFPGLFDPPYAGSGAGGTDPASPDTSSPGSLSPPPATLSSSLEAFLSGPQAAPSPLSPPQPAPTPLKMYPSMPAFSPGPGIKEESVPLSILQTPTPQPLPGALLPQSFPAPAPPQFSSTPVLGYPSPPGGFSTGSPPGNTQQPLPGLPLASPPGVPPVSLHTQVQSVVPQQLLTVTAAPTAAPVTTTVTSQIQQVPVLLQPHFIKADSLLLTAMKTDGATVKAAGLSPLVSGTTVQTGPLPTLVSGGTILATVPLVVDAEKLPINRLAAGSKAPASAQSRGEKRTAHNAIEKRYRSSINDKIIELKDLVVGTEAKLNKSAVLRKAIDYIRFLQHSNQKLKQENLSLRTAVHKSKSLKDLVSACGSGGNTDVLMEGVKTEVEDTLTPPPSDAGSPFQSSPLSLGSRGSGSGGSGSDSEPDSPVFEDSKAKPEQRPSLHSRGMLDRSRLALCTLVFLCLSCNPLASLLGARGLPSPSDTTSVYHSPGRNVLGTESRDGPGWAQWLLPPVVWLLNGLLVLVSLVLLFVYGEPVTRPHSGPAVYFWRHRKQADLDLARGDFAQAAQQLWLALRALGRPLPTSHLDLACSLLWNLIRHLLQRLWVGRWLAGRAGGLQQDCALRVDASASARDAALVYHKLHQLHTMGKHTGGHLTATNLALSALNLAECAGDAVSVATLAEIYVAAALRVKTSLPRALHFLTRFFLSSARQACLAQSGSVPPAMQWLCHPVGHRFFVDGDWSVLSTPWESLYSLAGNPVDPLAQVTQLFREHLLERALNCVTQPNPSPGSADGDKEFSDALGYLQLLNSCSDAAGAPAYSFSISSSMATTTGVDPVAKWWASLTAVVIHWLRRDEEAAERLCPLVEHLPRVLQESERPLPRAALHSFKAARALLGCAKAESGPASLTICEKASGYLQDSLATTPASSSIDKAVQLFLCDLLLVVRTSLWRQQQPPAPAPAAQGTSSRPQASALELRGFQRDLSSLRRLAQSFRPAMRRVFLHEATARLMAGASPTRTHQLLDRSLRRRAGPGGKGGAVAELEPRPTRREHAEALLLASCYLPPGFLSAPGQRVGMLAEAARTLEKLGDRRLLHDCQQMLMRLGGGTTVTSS

HepG2 = assay: Cytotoxicity against human HepG2 cells at 10 uM measured after 24 hrs by CCK-8 method relative to control; assay type: functional

inhibition [2] | Compound | Activity [1] | Activity (HepG2)
26.9% | CC(C)(C)c1ccc(Nc2c(N[C@H]3CC[C@H](Oc4ccc(S(C)(=O)=O)cc4)CC3)c(=O)c2=O)cc1 | 68.5% | 95%
35.6% | COc1ccc(Nc2c(N[C@H]3CC[C@H](Oc4ccc(C(F)(F)F)cc4)CC3)c(=O)c2=O)cc1 | 28.7% | 94.8%
22.2% | COc1ccccc1Nc1c(N[C@H]2CC[C@H](Oc3ccc(S(C)(=O)=O)cc3)CC2)c(=O)c1=O | 34.4% | 962%
24.3% | O=c1c(Nc2ccc(Cl)cc2)c(N[C@H]2CC[C@H](Oc3ccc([N+](=O)[O-])cc3)CC2)c1=O | 49.8% | 78.6%
40.5% | COC(=O)c1ccc(Nc2c(N[C@H]3CC[C@H](Oc4ccc(S(C)(=O)=O)cc4)CC3)c(=O)c2=O)cc1 | 22.3% | 90.1%
76.2% | CS(=O)(=O)c1ccc(O[C@H]2CC[C@H](Nc3c(Nc4ccccc4)c(=O)c3=O)CC2)cc1 | 76.1% | 76.2%
41.7% | COC(=O)c1ccc(Nc2c(N[C@H]3CC[C@H](Oc4ccc([N+](=O)[O-])cc4)CC3)c(=O)c2=O)cc1 | 26.7% | 91%
35.7% | COc1ccc(Nc2c(N[C@H]3CC[C@H](Oc4ccc(C#N)cc4)CC3)c(=O)c2=O)cc1 | 70.6% | 88.3%
23.9% | O=c1c(Nc2ccc(F)cc2)c(N[C@H]2CC[C@H](Oc3ccc([N+](=O)[O-])cc3)CC2)c1=O | 52.9% | 76.7%
107% | CS(=O)(=O)c1ccc(O[C@H]2CC[C@H](Nc3c(Nc4ccc(Cl)cc4)c(=O)c3=O)CC2)cc1 | 47.9% | 90.7%
51.1% | COc1cccc(Nc2c(N[C@H]3CC[C@H](Oc4ccc(S(C)(=O)=O)cc4)CC3)c(=O)c2=O)c1 | 62.5% | 100.4%
57.6% | COc1ccc(Nc2c(N[C@H]3CC[C@H](Oc4ccc([N+](=O)[O-])cc4)CC3)c(=O)c2=O)cc1 | 34.3% | 88.4%
53.3% | COc1ccc(Nc2c(N[C@H]3CC[C@H](Oc4ccc(S(C)(=O)=O)cc4)CC3)c(=O)c2=O)cc1 | 34.2% | 93.9%

Continued, compound first:

Compound | inhibition [2] | Activity [1] | Activity (HepG2)
COc1cccc(Nc2c(N[C@H]3CC[C@H](Oc4ccc(C(F)(F)F)cc4)CC3)c(=O)c2=O)c1 | 41.5% | 69.9% | 97.4%
O=c1c(Nc2ccccc2)c(N[C@H]2CC[C@H](Oc3ccc([N+](=O)[O-])cc3)CC2)c1=O | 59.6% | 82.7% | 102.8%
COC(=O)c1ccc(Nc2c(N[C@H]3CC[C@H](Oc4ccc(C#N)cc4)CC3)c(=O)c2=O)cc1 | 50.4% | 65.9% | 99.1%
O=c1c(Nc2ccc(Cl)cc2)c(N[C@H]2CC[C@H](Oc3ccc(C(F)(F)F)cc3)CC2)c1=O | 39.1% | 103.6% | 88.4%
COc1cccc(Nc2c(N[C@H]3CC[C@H](Oc4ccc(C#N)cc4)CC3)c(=O)c2=O)c1 | 51.1% | 60.6% | 91.4%
CC(C)(C)c1ccc(Nc2c(N[C@H]3CC[C@H](Oc4ccc(C(F)(F)F)cc4)CC3)c(=O)c2=O)cc1 | 32.6% | 68% | 95.9%
COC(=O)c1ccc(Nc2c(N[C@H]3CC[C@H](Oc4ccc(C(F)(F)F)cc4)CC3)c(=O)c2=O)cc1 | 47.5% | 91.6% | 104.7%
CC(C)(C)c1ccc(Nc2c(N[C@H]3CC[C@H](Oc4ccc(C#N)cc4)CC3)c(=O)c2=O)cc1 | 30.1% | 61.5% | 87.4%
CC(C)(C)c1ccc(Nc2c(N[C@H]3CC[C@H](Oc4ccc([N+](=O)[O-])cc4)CC3)c(=O)c2=O)cc1 | 42.8% | 50.4% | 
COc1ccccc1Nc1c(N[C@H]2CC[C@H](Oc3ccc(C(F)(F)F)cc3)CC2)c(=O)c1=O | 21.5% | 30% | 77.8%
COc1cccc(Nc2c(N[C@H]3CC[C@H](Oc4ccc([N+](=O)[O-])cc4)CC3)c(=O)c2=O)c1 | 18% | 64.3% | 87.2%
CS(=O)(=O)c1ccc(O[C@H]2CC[C@H](Nc3c(Nc4ccc(F)cc4)c(=O)c3=O)CC2)cc1 |  | 24% | 91.3%
N#Cc1ccc(O[C@H]2CC[C@H](Nc3c(Nc4ccccc4)c(=O)c3=O)CC2)cc1 | 80.1% | 84.8% | 90.6%
N#Cc1ccc(O[C@H]2CC[C@H](Nc3c(Nc4ccc(F)cc4)c(=O)c3=O)CC2)cc1 | 46.2% | 87.4% | 77%
N#Cc1ccc(O[C@H]2CC[C@H](Nc3c(Nc4ccc(Cl)cc4)c(=O)c3=O)CC2)cc1 | 87.1% | 36.9% | 96.2%
O=C(Nc1ccc(Br)cc1)Nc1cccnc1 |  | 56.6% | 
O=c1c(Nc2ccc(F)cc2)c(N[C@H]2CC[C@H](Oc3ccc(C(F)(F)F)cc3)CC2)c1=O | 40% | 59.3% | 87.8%
O=c1c(Nc2ccccc2)c(N[C@H]2CC[C@H](Oc3ccc(C(F)(F)F)cc3)CC2)c1=O | 70.8% | 77% | 93.2%
